Assay results published in patent US20140011889A1, “Resveratrol-Containing Compositions and Methods of Use for Cardiac-Related Diseases” (Resveratrol Partners, LLC, priority 2010, published 2014).

Key:
[1] = tested on: miRNA expression, rat heart; assay: Global miRNA expression profiling (TLDA array) in ischemia-reperfused rat heart; conditions: for miR-21 expression, up: vs basal level control heart
Description: Global miRNA expression profiling in ischemia-reperfused rat heart. MicroRNA profiles were analyzed by TLDA array specific for 586 miRNA and five endogeneous control for rat.
Male Sprague-Dawley rats weighing between 250 and 300 g were fed ad libitum regular rat chow with free access to water until the start of the experimental procedure.
Micro RNA isolation and cDNA preparation. Total RNA from rat heart samples were isolated using Trizol reagent (Invitrogen) and further purified using mirVANA miRNA isolation kit (Ambion).
Profiling of miRNA expression. miRNA expression profiling were carried out using quantitative real-time PCR method by TaqManH Gene Signature Rodent Arrays on a 384 well micro fluidic card in 7900HT Realtime PCR machine (Applied Biosystem, Foster City) according to manufacturer's recommendation. Each miRNA were quantified by two specific amplicon primers and one specific probe. […] In addition, each array contains six control assays—five carefully selected candidate endogenous control assays, and one negative control assay.
Analyses of miRNA gene expression data. Realtime PCR data expressed as Ct values from array A and B were combined using R script (provided by GeneSpring Informatics Support Team) and processed using GeneSpringGX 11.0.2 software (Agilent Technologies, Santa Clara).

[2] = tested on: isolated perfused rat hearts; assay: Myocardial infarct size, TTC staining (Example 6); type: in vivo, Sprague-Dawley rats
Description: Infarct size estimation. Infarct size was measured using the triphenyl tetrazolium chloride (TTC) staining method. Malik et al. […] After two hours of reperfusion, 40 ml of 1% (w/v) solution of TTC in phosphate buffer was infused into the aortic cannula, and the heart samples were stored at −70° C. for subsequent analysis. Sections (0.8 mm) of frozen heart were fixed in 2% paraformaldehyde, placed between two cover slips and digitally imaged using a Microtek ScanMaker 600z (Microtek, USA). To quantitate the areas of infarct in pixels, a standard National Institutes of Health image program was used. The infarct size was quantified and expressed in pixels. At the end of each experiment the hearts were either subjected to TTC staining to determine infarct size or TUNEL staining to detect apoptosis.

brain tissue = assay: Gene expression in brain tissue; type: in vivo, mice; conditions: mouse brain tissue
From the text: Similar effects have been observed in non-heart tissue.

reactive oxygen species = assay: Intracellular ROS by CM-H2DCFDA fluorescence in I/R heart; type: in vivo, rat; conditions: IR heart, FIG. 19
Description: The dye was injected intravenously, prior to induction of ischemia/reperfusion, and at the end of the experiments, the level of fluorescence was determined for the generation of ROS by measuring the fluorescent oxidation product CM-DCF in the cytosol, at an excitation wavelength of 480 nm and an emission wavelength of 520 nm.

[3] = tested on: isolated perfused rat hearts; assay: Isolated working rat heart, ischemia/reperfusion, cardiac function (Example 6); type: in vivo, Sprague-Dawley rats
Description: Isolated working heart preparation. After completing the feeding protocol, the animals were anesthetized with sodium pentobarbital (80 mg/kg, intraperitoneally) (Abbott Laboratories, North Chicago, Ill., USA), and heparin sodium (500 U/kg, intravenously) (Elkins-Sinn Inc., Cherry Hill, N.J., USA) was used as an anticoagulant. After deep anesthesia, the hearts were excised, the aorta was cannulated, and the hearts were perfused through the aorta in Langendorff mode at a constant (100 cm of water) perfusion pressure at 37° C. with Krebs-Henseleit bicarbonate for a 5 min washout period as described previously. Ray et al. (1999) Free Rad Biol Med 27:160-9.
During the washout period, the left atrium was cannulated, and the Langendorff preparation was switched to the working mode for 10 min with a left atrial filling pressure of 17 cm H2O; the aortic afterload pressure was set to 100 cm of water. At the end of 10 min, the baseline cardiac function such as heart rate (HR, beats/min), aortic flow (AF, ml/min), coronary flow (CF, ml/min), left ventricular developed pressure (LVDP, mmHg) and first derivative of developed pressure (LVdp/dt, mmHg/sec) were recorded. Later, 30 min of global ischemia was initiated by clamping the left atrial inflow and aortic outflow lines at a point close to their origins. After 30 min, reperfusion was initiated for 120 min by unclamping the atrial inflow and aortic outflow lines. The first 10 min of reperfusion was in Langendorff mode to avoid ventricular fibrillation, and then the hearts were switched to an anterograde working mode. Ray et al. (1999) Free Rad Biol Med 27:160-9.
Cardiac function assessment. After 10 min of the working mode, baseline parameters were recorded. To monitor the recovery of the heart, the left ventricular cardiac function was recorded after 60 and 120 min of reperfusion. Six rats were present in each group. […] Coronary flow was measured by timed collection of the coronary effluent dripping from the heart. During the entire experiment, the aortic pressure was monitored using a Gould P23XL pressure transducer (Gould Instrument Systems Inc., Valley View, Ohio, USA) connected to the side arm of the aortic cannula; the signal was amplified using a Gould 6600 series signal conditioner (Gould Instrument Systems Inc.). […] The heart rate, left ventricular developed pressure, and the first derivative of developed pressure were all calculated from the continuously generated pressure signal.
At the end of the 21 days, the animals were sacrificed, their hearts were excised and isolated, and ischemia was induced for 30 min by terminating the coronary flow (as described in the methods section). This was then followed by 2 h of reperfusion in the working mode; during the reperfusion left ventricular function was monitored.

Oc1ccc(/C=C/c2cc(O)cc(O)c2)cc1 [resveratrol, 3,4′,5-trihydroxy-trans-stilbene]
principal component analysis of miRNA expression, IR treated samples ([1]; FIG. 15C): remarkably similar to BL vehicle sample | miR-21 expression, up ([1]; IR): 61.5 fold | miR-21 expression, up ([1]; basal level): 391.4 fold | miRNAs whose up or down regulation in IR control was reversed in the opposite direction ([1]; of the 25 miRNAs of Table 11, both treatments): 11 | myocardial infarct size ([2]; 2.5 and 25 mg/kg): significantly reduced | myocardial infarct size ([2]; above 50 mg/kg): significant increased | genes with altered expression, treatment and calorie reduced diets, number (brain tissue): 10 genes | intracellular ROS concentration compared to control (reactive oxygen species): lowered | aortic flow and developed pressure ([3]; 100 mg/kg, gavage 21 days): no aortic flow or developed pressure | cardioprotection (aortic flow, LVDP, maximum LVdP/dt) ([3]; 2.5 and 25 mg/kg, gavage 21 days, 30 min ischemia, 2 h reperfusion): conferred cardioprotection | ventricular function (aortic flow, LVDP, maximum LVdP/dt) ([3]; above 25 mg/kg, gavage 21 days): ventricular function was deteriorated | hormetic action (dose-response of cardioprotection) ([3]; rat, doses up to 100 mg/kg): displayed hormetic action
